Consider two compounds from patent publication US10280170B2, “Substituted 4,5,6,7-tetrahydro-pyrazolo[1,5-a]pyrazine derivatives and 5,6,7,8-tetrahydro-4H-pyrazolo[1,5-a][1,4]diazepine derivatives as Ros1 inhibitors” (Janssen Pharmaceutica NV, priority 2014, dated 2019).

Several values for one entry are separate records, joined by “and”; a condition that tells them apart may be missing. Equal entries are not always repeated.

One assay addresses T1, Ros1 enzyme (Homo sapiens, UniProt P08922).
T1 construct: 0.5 μg/ml Ros1 enzyme
Kind of assay: Ros1 enzymatic assay. It counts as biochemical. Conditions: Ros1 enzymatic assay; read-out: ROS1 pIC50 (converted). The essentials:
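First, compounds meet Ros1 enzyme mix plus substrate mix containing IRS-Tide and 33P-labelled ATP at 20 μM. Next, incubation lasts 120 minutes at room temperature. Then EDTA stop buffer with streptavidin beads is added for 15 minutes, and bead-bound radioactivity is imaged.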

For assay [1], the target named is T2, Ba/F3 cells containing Ros1 wild-type protein (Homo sapiens, UniProt P08922, cells depend on it, form not given).
T2 construct: The background only speaks of 'a number of different unrelated proteins' and names SLC34A2-ROS1 for HCC78 cells
As to the kind of experiment: Ba/F3-Ros1 cell proliferation assay, wild-type Ros1. The class given is cell-based, murine. The following applies: without IL-3. An outline of the steps: (§1)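 20000 Ba/F3-Ros1 cells/well (WT, L2026M, G2032R), RPMI-1640 phenol red free + 10% FBS + 2 mM Gln, cpds from DMSO; 24 h, 37 °C, 5% CO2. Alamar Blue 4 h, RFU ex540/em590.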

Assay [2] has as its target Ba/F3 cells containing Ros1 with G2032R mutation (Homo sapiens, UniProt P08922, G2032R, cells depend on it, form not given). As to the kind of experiment: Ba/F3-Ros1 cell proliferation assay, G2032R crizotinib-resistance mutant. It counts as cell-based, murine. Conditions: without IL-3. The essentials: as §1
Assay [3] deals with Ba/F3 cells containing Ros1 wild-type protein + IL-3. Kind of assay: Ba/F3-Ros1 cell proliferation counter-screen, wild-type protein in the presence of 10 ng/ml murine IL-3. It counts as cell-based. Conditions: Mus musculus, BaF3, 24 h, read-out: BaF3-ROS1 + IL3 pIC50 (converted). An outline of the steps: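 Compounds were dispensed from DMSO into plates, and 20000 Ba/F3 cells carrying wild-type Ros1 were added in phenol red-free RPMI-1640 with 10% FBS plus 10 ng/ml murine IL-3. After 24 h at 37 °C, Alamar Blue was added for 4 h and fluorescence recorded.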
(In general: A counterscreen serves to expose hits that act by an unwanted route or on another target.)

Assay [4] has as its system HCC78 non-small cell lung cancer cells. Kind of assay: HCC78 cell proliferation assay. The following applies: Homo sapiens, HCC78, 96 h, read-out: HCC-78 PROL pEC50 (converted). It counts as cell-based. An outline of the steps:
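HCC78 NSCLC cells (~1000/well) in RPMI-1640 with 10% FBS were treated 24 h after seeding and exposed to compound for 4 days at 37 °C. Viability was read by MTT, with absorbance at 538 nm after DMSO/glycine solubilization.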

Assay [5] has as its system Ba/F3 tumors containing wild-type Ros1. Kind of assay: Efficacy study in mice bearing Ba/F3-Ros1 tumors, wild-type Ros1. It counts as in vivo, NMRI nude mice. The following applies: oral gavage, 10 days. Here is the method: (§2) Efficacy Studies in Mice Bearing Ba/F3-Ros1 Tumors
(§3) Approximately 2×10^6 Ba/F3 cells containing either wild-type, L2026M or G2032R mutant Ros1 were inoculated into the inguinal region of NMRI nude mice. When the resulting tumors reached a size of 250 to 350 mm^3, mice were randomly assigned to the different treatment groups (8 to 12 mice per group). Compounds formulated in 20% cyclodextrin were administered to the mice by oral gavage at various doses for 10-days once (QD) or twice (BID) a day. Tumor sizes were determined by caliper measurement on day 1 prior to treatment and then twice weekly for the duration of the study using the commonly following formula: tumor volume (mm^3)=(a×b^2/2); where ‘a’ represents the length, and ‘b’ the width of the tumor. Treatment/control (T/C) ratios were calculated at the end of the study based on the change in final relative tumor volumes.

The subject of assay [6] is Ba/F3 tumors containing L2026M mutant Ros1. Kind of assay: Efficacy study in mice bearing Ba/F3-Ros1 tumors, L2026M mutant Ros1. It counts as in vivo, NMRI nude mice. Conditions: oral gavage, 10 days. Here is the method: as §2, §3

T1 sequence (P08922 28-2347): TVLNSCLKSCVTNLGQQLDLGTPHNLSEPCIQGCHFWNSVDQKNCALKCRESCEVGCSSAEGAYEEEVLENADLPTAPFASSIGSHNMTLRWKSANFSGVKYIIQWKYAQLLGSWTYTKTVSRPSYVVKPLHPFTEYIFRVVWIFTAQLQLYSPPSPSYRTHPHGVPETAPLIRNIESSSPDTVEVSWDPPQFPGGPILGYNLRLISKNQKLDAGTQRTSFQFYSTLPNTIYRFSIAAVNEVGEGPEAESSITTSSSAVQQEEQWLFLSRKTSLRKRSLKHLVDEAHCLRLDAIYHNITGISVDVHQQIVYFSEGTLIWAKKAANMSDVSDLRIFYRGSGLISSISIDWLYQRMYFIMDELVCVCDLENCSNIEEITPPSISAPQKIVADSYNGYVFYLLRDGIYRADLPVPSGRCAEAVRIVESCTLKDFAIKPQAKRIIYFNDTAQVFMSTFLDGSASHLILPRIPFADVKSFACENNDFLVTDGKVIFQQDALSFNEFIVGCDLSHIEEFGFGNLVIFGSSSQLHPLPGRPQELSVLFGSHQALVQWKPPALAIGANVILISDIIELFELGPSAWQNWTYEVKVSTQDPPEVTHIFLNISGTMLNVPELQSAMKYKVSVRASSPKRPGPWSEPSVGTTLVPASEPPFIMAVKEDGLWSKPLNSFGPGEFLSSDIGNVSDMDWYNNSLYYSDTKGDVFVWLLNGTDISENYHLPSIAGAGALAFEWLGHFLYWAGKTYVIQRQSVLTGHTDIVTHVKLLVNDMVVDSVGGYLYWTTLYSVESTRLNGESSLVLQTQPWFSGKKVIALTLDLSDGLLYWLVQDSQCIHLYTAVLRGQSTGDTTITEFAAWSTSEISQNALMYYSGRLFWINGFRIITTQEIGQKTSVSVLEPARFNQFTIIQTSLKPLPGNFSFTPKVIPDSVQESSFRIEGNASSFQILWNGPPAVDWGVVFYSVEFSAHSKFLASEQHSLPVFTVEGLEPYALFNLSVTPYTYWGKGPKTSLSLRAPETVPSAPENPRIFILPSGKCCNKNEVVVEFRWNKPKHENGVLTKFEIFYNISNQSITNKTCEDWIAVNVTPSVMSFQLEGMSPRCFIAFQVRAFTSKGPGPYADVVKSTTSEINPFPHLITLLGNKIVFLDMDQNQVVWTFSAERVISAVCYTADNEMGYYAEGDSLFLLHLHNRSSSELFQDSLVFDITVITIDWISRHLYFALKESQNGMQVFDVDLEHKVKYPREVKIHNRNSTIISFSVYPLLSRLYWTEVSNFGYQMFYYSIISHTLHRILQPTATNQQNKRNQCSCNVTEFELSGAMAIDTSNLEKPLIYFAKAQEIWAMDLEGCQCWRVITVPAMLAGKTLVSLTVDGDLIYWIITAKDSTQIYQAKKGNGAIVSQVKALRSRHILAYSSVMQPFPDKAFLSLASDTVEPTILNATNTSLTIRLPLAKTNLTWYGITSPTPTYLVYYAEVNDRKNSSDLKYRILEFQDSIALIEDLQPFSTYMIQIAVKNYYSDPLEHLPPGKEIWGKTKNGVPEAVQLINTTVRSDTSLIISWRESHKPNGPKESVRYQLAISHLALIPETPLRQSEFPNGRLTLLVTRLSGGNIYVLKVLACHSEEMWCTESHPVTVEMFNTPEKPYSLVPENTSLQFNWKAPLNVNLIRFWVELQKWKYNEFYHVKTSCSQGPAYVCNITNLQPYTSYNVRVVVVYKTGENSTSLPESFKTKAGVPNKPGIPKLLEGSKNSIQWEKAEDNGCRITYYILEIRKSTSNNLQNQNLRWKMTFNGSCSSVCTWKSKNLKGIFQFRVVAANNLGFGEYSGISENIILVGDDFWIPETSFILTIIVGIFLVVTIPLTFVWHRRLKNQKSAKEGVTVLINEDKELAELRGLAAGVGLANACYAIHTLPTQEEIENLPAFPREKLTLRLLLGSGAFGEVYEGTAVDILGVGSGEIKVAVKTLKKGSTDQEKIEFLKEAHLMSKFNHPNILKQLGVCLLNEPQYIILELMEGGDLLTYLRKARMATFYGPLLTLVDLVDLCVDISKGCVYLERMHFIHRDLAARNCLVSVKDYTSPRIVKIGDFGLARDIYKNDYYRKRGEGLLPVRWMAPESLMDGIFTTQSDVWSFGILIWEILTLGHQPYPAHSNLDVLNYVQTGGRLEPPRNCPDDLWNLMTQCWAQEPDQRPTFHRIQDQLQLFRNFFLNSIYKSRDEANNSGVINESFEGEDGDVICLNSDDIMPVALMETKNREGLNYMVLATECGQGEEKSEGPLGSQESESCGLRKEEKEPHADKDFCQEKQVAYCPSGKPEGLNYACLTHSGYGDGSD
Ba/F3 cells containing Ros1 with G2032R mutation, sequence (P08922 whole entry G2032R, form open): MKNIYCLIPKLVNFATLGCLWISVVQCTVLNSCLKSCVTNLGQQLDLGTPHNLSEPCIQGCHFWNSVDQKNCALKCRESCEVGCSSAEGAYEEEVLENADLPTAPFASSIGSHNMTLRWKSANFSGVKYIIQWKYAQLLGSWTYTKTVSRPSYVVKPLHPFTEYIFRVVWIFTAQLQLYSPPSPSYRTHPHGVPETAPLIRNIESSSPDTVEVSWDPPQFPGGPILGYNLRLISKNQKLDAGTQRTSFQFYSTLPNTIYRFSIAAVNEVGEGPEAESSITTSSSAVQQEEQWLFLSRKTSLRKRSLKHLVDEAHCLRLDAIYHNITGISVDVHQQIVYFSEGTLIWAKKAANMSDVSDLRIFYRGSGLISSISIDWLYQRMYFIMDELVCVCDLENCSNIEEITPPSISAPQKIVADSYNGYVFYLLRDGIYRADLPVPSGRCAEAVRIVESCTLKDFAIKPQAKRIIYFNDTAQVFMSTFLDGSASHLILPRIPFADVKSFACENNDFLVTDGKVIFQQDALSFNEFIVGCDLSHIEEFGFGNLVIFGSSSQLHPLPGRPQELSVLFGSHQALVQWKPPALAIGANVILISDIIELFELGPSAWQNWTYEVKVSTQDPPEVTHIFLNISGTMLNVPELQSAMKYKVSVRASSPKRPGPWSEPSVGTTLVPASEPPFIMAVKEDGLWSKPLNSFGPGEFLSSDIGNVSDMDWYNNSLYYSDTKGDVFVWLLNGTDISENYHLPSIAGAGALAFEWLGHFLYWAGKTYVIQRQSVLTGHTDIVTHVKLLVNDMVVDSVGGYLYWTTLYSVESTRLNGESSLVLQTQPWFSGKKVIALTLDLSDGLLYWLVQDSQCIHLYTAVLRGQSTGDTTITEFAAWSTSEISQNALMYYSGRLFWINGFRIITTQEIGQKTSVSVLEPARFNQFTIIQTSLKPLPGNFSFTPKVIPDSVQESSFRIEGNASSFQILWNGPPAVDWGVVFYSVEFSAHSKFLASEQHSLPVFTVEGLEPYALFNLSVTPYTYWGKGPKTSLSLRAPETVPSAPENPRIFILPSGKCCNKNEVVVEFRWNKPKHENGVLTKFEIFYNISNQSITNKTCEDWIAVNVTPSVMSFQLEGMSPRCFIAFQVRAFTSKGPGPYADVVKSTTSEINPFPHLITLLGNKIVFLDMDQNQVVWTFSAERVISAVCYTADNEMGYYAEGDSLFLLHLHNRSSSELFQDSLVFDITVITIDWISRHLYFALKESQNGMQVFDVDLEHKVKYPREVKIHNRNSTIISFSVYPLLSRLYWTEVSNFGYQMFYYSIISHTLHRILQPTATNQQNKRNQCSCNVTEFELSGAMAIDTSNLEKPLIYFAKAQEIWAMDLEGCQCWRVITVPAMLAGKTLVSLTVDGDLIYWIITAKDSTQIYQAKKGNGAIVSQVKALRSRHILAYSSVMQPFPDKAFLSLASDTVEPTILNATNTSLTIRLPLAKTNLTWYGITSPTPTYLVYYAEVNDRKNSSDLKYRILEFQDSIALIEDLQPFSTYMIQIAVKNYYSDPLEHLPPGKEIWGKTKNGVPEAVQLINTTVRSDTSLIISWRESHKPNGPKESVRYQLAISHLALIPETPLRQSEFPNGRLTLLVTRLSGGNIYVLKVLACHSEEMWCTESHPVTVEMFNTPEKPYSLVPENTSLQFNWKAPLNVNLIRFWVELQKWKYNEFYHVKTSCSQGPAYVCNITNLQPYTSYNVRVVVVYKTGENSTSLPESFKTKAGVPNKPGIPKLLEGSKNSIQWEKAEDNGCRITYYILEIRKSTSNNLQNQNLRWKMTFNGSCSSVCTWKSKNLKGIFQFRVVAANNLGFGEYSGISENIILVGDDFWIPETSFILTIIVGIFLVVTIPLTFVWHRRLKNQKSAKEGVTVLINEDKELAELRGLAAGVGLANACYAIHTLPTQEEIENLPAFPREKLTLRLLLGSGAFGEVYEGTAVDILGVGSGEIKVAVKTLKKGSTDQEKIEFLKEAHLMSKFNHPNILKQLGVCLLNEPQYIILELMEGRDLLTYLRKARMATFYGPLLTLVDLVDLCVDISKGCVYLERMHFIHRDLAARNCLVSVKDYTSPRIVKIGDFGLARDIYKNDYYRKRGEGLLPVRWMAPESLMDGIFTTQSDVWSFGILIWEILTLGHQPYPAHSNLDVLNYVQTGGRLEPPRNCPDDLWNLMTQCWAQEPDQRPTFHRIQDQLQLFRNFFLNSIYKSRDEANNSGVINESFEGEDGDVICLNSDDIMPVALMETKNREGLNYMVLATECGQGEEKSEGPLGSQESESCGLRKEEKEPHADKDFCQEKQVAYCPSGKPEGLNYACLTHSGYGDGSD
T2 sequence (P08922 whole entry, stated change not applied): as the sequence (P08922 whole entry G2032R, form open) above, with R2032G counted along it

Take `CC(C)c1ccc(COc2ccc(-c3c(-c4ccncc4)nn4c3C(=O)NCC4)cc2)cc1` [Compound 1]: the IC50 at Ros1 enzyme is 25.1 nM. Moreover, the “BaF3-ROS1-IL3 pIC50” value in assay [1] was found to be 7.6. Also, in assay [2], the “Ba/3 Ros1 G2032R (-IL-3) pIC50” value was found to be 7.0. The CC50 in assay [3] is over 10000 nM. Also, the EC50 in assay [4] was 126 nM. In addition, the “T/C (%)” value worked out at 88% in assay [5] (1.56 mg/kg QD); 75% in assay [5] (3.125 mg/kg QD); 50% in assay [5] (6.25 mg/kg BID); 35% in assay [5] (6.25 mg/kg QD); 20% in assay [5] (12.5 mg/kg BID); 12% in assay [5] (12.5 mg/kg QD). Moreover, the “T/C (%)” value in assay [5] (25 mg/kg BID) is −13%; in assay [5] (25 mg/kg QD) it was −27%; in assay [6] (6.25 mg/kg BID), 94%; in assay [6] (12.5 mg/kg BID) it was 23%; in assay [6] (25 mg/kg QD), 42%.

Consider `CC(C)c1ccc(COc2ccc(-c3c(-c4ccncc4)nn4c3C(=O)N(CCO)CC4)cc2)cc1` [Compound 2], for which the IC50 at Ros1 enzyme is 20 nM. The “BaF3-ROS1-IL3 pIC50” value in assay [1] was 7.6. Besides, the “Ba/3 Ros1 G2032R (-IL-3) pIC50” value in assay [2] was 7.1. Moreover, the CC50 in assay [3] was over 10000 nM. Besides, in assay [4], the EC50 was 126 nM. The “T/C (%)” value in assay [5] (3.125 mg/kg BID) is 91%; in assay [5] (6.25 mg/kg BID) it was 67%; in assay [5] (12.5 mg/kg BID, 12.5 mg/kg), 47% and 51%; in assay [5] (12.5 mg/kg QD) it was 61%; in assay [5] (25 mg/kg QD), 46%; in assay [5] (50 mg/kg QD), 20%. Also, the “T/C (%)” value in assay [5] (100 mg/kg BID) was −22%; in assay [6] (12.5 mg/kg BID), 82%; in assay [6] (25 mg/kg BID) it was 50%; in assay [6] (50 mg/kg BID) it was 28%; in assay [6] (100 mg/kg BID), −32%.
